Reference: patent US20130344065A1, “Combination Treatment with VEGF-C Antagonists” (Vegenics Pty Ltd, priority 2010, published 2013)
“Also recorded” adds a separate entry of the source.

Tests used:
[1] = system: PC-3-GFP human prostate tumors; assay: PC-3-GFP orthotopic MetaMouse model (Example 13); type: in vivo
Procedure: PC-3-GFP human prostate cancer orthotopic MetaMouse® model was conducted by AntiCancer Inc. PC-3-GFP tumor fragments were surgically implanted between the ventral lobes of the prostate and closed by suture. Treatment was started three days after surgery (60 mg/kg, 3×/week, IP). Whole body imaging of GFP-expressing tumors was performed once a week in live animals after GFP-visible tumors were established. Primary tumor sizes were estimated once a week by caliper measurement and tumor volume (mm^3) calculated by the formula (L×W2)/2. Details of the study are as follows:
Male NCr nu/nu mice, 5-6 weeks old, were used in the study. Original breeding pairs were purchased from Taconic, Germantown, N.Y. Test animals were bred and maintained in a HEPA filtered environment for the experiment. Cages, food and bedding were autoclaved. The animal diets were obtained from PMI Nutrition International Inc. (Brentwood, Mo.).
Vehicle, VGX-100 and Isotype were kept at −20° C. until use. VGX-100 and Isotype were diluted with PBS to proper concentration (7.5 mg/ml and 7.5 mg/ml) before use.
Tumor stocks were made by subcutaneously injecting PC-3-GFP cells at a concentration of 5×10^6 cells/100 μl into the flank of nude mice. The tumor tissues harvested from s.c. growth in nude mice were inspected and any grossly necrotic or suspected necrotic or non-GFP tumor tissues were removed. Tumor tissues were subsequently cut into small fragments of approximately 1 mm^3.
The animals were anesthetized with the mixture of Ketaset, Xylazine and PromAce and the surgical area was sterilized using iodine and alcohol. An incision approximately 2 cm long was made in the lower abdomen of the nude mouse using a sterile scalpel and blade (#10). The prostate was exposed and the capsule of the prostate was carefully opened. Two fragments (1 mm^3 each) of PC-3-GFP tissue were sutured between two ventral lobes of the prostate with sterile 8-0 surgical suture (nylon). The abdomen was closed in one layer with sterile 6-0 surgical sutures (silk). All procedures were carried out under a 5× dissecting microscope under HEPA filtered laminar flow hoods.
Treatment in both groups was started three days after SOI.
The FluorVivo imaging system (INDEC Biosystems, Santa Clura, Calif.) was used for whole body imaging. Whole body optical imaging of GFP-expressing tumors was performed once a week in live animals after GFP-visible tumors were established. At necropsy, open imaging was performed in the thoracic and abdomen for inspection of metastasis to the lymph nodes.
Tumor size and body weight measurement: Primary tumor sizes and body weights were measured once a week by using a calipers and an electronic scale, respectively. Primary tumor sizes were estimated once a week by measuring the perpendicular minor dimension (W) and major dimension (L). Approximate tumor volume (mm^3) was calculated by the formula (W2×L)×1/2.
All the animals were sacrificed at day 30 after treatment initiation.
Primary tumor was excised and weighed at necropsy.
The Student's t-test with α equal to 0.05 was used to compare the mean tumor volume and tumor weight among the experimental groups.

[2] = target: T1, VEGF-C binding to the extracellular domain of VEGFR-2 (Homo sapiens, UniProt P49767); assay: Ba/F3-VEGFR-2 bioassay of VEGF-C binding; type: cell-based; details: [3H]thymidine incorporation, 48 hrs
T1 construct: expressed in transfected cells; host or cells: Ba/F3 cells (BA/F3-VEGFR-2)
T1 sequence (P49767 112-227 limits assumed): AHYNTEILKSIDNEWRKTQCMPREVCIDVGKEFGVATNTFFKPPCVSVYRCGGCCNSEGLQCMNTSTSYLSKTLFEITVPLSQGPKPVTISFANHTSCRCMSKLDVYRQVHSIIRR
Procedure: The binding of VEGF-C to the extracellular domain of VEGFR-2 or VEGFR-3 was measured using BA/F3-VEGFR-2 or -3/EpoR cells. The response to ligands and VGX-100 was measured by [^3H]-thymidine incorporation following exposure for 48 hrs.
Bioassays to measure the binding of VEGF-C to the extracellular domain of VEGFR-2 or VEGFR-3 were performed with BA/F3-VEGFR-2 or BA/F3-VEGFR-3/EpoR cells. The response to ligands and VGX-100 was measured by [^3H] thymidine incorporation following exposure for 48 hrs.

## VGX-100: VEGF-C antibody; heavy chain SEQ ID NO: 3, light chain SEQ ID NO: 4
[1]; 60 mg/kg IP
  Reduction of incidence of metastasis to local lymph nodes vs control: 55%
[1]; 60 mg/kg IP 3x/week
  Toxicity / body weight: no obvious toxicity; also recorded: No acute body weight loss
[1]; FOTI, Fisher's exact test
  Metastatic incidence to lymph nodes vs control: significant difference in metastatic incidence
[1]; FOTI, of 19 analyzed animals, 60 mg/kg IP
  # of animals with lymph node (LN) mets: 6
[1]; FOTI, 60 mg/kg IP
  Animals with lymph node (LN) mets, percent: 32%
[1]; day 28
  Tumor volume vs isotype control: statistically significant reduction
[1]; day 28, 60 mg/kg IP
  Reduction of mean tumor volume vs isotype control: 59%
[1]; day 28 after treatment, caliper, 60 mg/kg IP 3x/week
  Mean tumor volume (mm^3) mean ± SE: 176.8 ± 183.2 mm^3
[1]; day 30
  Tumor weight vs isotype control: A statistically significant reduction was not observed
[1]; day 30 after treatment, 60 mg/kg IP
  Mean tumor weight (g) mean ± SE: 0.95 ± 0.45 g
[2]
  Blocking of VEGF-C binding to VEGFR-2: blocked VEGF-C binding
